Assays:
[1] = test system: Wistar rats; test: Chronic constriction injury (CCI) rat model of neuropathy, paw withdrawal threshold with electronic von Frey device; type: in vivo; conditions: 16.66 mg/kg
Text: Furthermore, based on the article Bennett G J, at al (Pain., A peripheral mononeuropathy in rat that produces disorders of pain sensation like those seen in man. 1988 April; 33(1):87-107) we have developed a method for the examination of the compositions of the present invention. Thus, we have examined the compositions according to the present invention also with a different model for measuring the alleviation of the peripheral neuropathic pain also. Namely, we have carried out examinations on rats using Chronic constriction injury (CCI) model. Three weeks following nerve injury rats were assessed for hind paw mechanical withdrawal thresholds. The paw withdrawal threshold (PWT) was determined with an Electronic von Frey device according to the modified up-down method of Dixon (Efficient analysis of experimental observations., Annu Rev Pharmacol Toxicol. 1980; 20:441-62). […] The method and results are shown in example 3 and on FIG. 9.
Thus, the compositions of the present invention are effective in the treatment of neuropathic pain. […]
Briefly, under isoflurane anesthesia small blunt dissection was made into the skin of rat right thigh then three loosely constrictive ligatures were placed around common sciatic nerve (chronic constriction injury CCI). Three weeks following nerve injury rats were assessed for hind paw mechanical withdrawal thresholds. […]

[2] = test system: Mouse; conditions: topical 2.5% aqueous solution without other ingredients; cited from earlier work
[3] = test system: human patient; conditions: same aqueous solution; cited from earlier work
[4] = compositions containing 1 and 3% of pregabalin; cited from earlier work
[5] = Pharmacokinetic studies, blood level of pregabalin after oral or topical administration

**Q.** With CC(C)C[C@H](CN)CC(=O)O [pregabalin] as the compound, how does the “reduction of hypersensitivity after oral administration” value [1] read?
**A.** The value was “not able to reduce hypersensitivity”.

**Q.** And the “alleviating effect 6 hours after administration” value [2]?
**A.** The value was “the effect essentially disappeared”.

**Q.** What about the “time of maximum alleviating effect” value [2] of the same compound?
**A.** The value was 1 h.

**Q.** What about the “duration of reduction of neuropathic pain” value [3] of the same compound?
**A.** The value was 6 h.

**Q.** And the “time after which the pain alleviation effect decreased” value [4]?
**A.** The value was 1.5 to 2 h.

**Q.** And the “amount entering the bloodstream during topical treatment” value [5]?
**A.** The value was “very small amounts”.

From patent US20240082192A1, “TOPICAL F[…] PREGABALIN” (EGIS GYÓGYSZERGYÁR ZRT., priority 2021, published 2024)
